Results as given in ChEMBL document CHEMBL4483862, “Open-source discovery of chemical leads for next-generation chemoprotective antimalarials” (2018).

Test system: Plasmodium berghei
Test: Luciferase/luciferin-expressing antifolate-resistant parasites were used to infect a culture of HepG2 cells that were pre-incubated with compounds. Infected hepatocytes emit light due to the luciferase reaction. Assay results are presented as the percent inhibition of light emission compared to control. […]
Assay type: functional
Conditions: sporozoite; for IC90: read-out: LUCIFERASE INFECTION ASSAY - IC90
[1] = read-out: LUCIFERASE INFECTION ASSAY - IC50

Row | Compound | IC90 | other results
1 | Cc1nn(CC(C)C)c(Cl)c1C(=O)Nc1nc(-c2ccccn2)cs1 | 3.35 µM | IC50 (HEPG2TOX_HILL_SLOPE 0.847, HEPG2TOX_R_SQUARED 0.93, PBLUC_HILL_SLOPE 12, PBLUC_R_SQUARED 0.706, read-out: LUCIFERASE INFECTION ASSAY - IC50): 2.79 µM
2 | Nc1ncc(-c2cccc(O)c2)cc1-c1cccc(C(F)(F)F)c1 | 3.76 µM | IC50 (HEPG2TOX_HILL_SLOPE 7.78, HEPG2TOX_R_SQUARED 0.72, PBLUC_HILL_SLOPE 13.3, PBLUC_R_SQUARED 0.696, read-out: LUCIFERASE INFECTION ASSAY - IC50): 3.18 µM
3 | CC(=O)c1cccc(-c2cnc3cnc(-c4cccc(C(N)=O)c4)cn23)c1 | > 9.26 µM | IC50 (PBLUC_HILL_SLOPE 1.58, PBLUC_R_SQUARED 0.572, read-out: LUCIFERASE INFECTION ASSAY - IC50): 3.69 µM
4 | COc1cc(-c2cc(-c3cc(C)c(O)c(C)c3)cnc2N)ccc1O | 3.93 µM | IC50 (HEPG2TOX_HILL_SLOPE 11.4, HEPG2TOX_R_SQUARED 0.062, PBLUC_HILL_SLOPE 8, PBLUC_R_SQUARED 0.677, read-out: LUCIFERASE INFECTION ASSAY - IC50): 2.99 µM
5 | Fc1cccc(F)c1NC(=S)Nc1cc(C(F)(F)F)cc(C(F)(F)F)c1 | > 8.24 µM | IC50 [1]: > 8.24 µM
6 | Cc1cc(C(=O)C(C)OC(=O)CCc2nc(=O)c3ccccc3[nH]2)c(C)n1-c1ccc(Cl)cc1 (configuration not stated) | > 10 µM | IC50 (HEPG2TOX_HILL_SLOPE 0.024, HEPG2TOX_R_SQUARED 0.0218, read-out: LUCIFERASE INFECTION ASSAY - IC50): > 10 µM
7 | CC(=O)Nc1cc(C(=O)CSc2ncnc3sccc23)ccc1O | > 10 µM | IC50 [1]: > 10 µM
8 | CNc1nc2cnc(Nc3cccc(C)c3)cc2n1-c1cccc(C(F)(F)F)c1 | > 10 µM | IC50 (HEPG2TOX_HILL_SLOPE 1.54, HEPG2TOX_R_SQUARED 0.691, PBLUC_HILL_SLOPE 2.02, PBLUC_R_SQUARED 0.694, read-out: LUCIFERASE INFECTION ASSAY - IC50): 4.3 µM
9 | O=C(Nc1ccc(Cl)c(C(F)(F)F)c1)C(OC(=O)C12CC3CC(CC(C3)C1)C2)c1ccccc1 (configuration not stated) | 9.6 µM | IC50 (HEPG2TOX_HILL_SLOPE 10.4, HEPG2TOX_R_SQUARED 0.074, PBLUC_HILL_SLOPE 15.3, PBLUC_R_SQUARED 0.511, read-out: LUCIFERASE INFECTION ASSAY - IC50): 8.31 µM
10 | CCOC(=O)c1c(NC(=O)CNCc2ccccn2)sc(CC)c1C | 6.49 µM | IC50 (HEPG2TOX_HILL_SLOPE 2.14, HEPG2TOX_R_SQUARED 0.831, PBLUC_HILL_SLOPE 2.51, PBLUC_R_SQUARED 0.552, read-out: LUCIFERASE INFECTION ASSAY - IC50): 2.7 µM
11 | COc1ccc(C2CC(CCc3c[nH]c4ccccc34)=NN2c2ccccc2)cc1 (configuration not stated) | 3.8 µM | IC50 [1]: 3.35 µM
12 | Cc1cc(C(=O)/C(C#N)=N/Nc2ccc(Cl)cc2)n(C(C)(C)C)n1 | 7.21 µM | IC50 (HEPG2TOX_HILL_SLOPE 0.671, HEPG2TOX_R_SQUARED 0.767, PBLUC_HILL_SLOPE 2.12, PBLUC_R_SQUARED 0.724, read-out: LUCIFERASE INFECTION ASSAY - IC50): 2.56 µM
13 | COc1ccc(-c2cnc3ccc(N[C@H](CO)C(C)C)nn23)cn1 | 4.4 µM | IC50 (PBLUC_HILL_SLOPE 4.47, PBLUC_R_SQUARED 0.471, read-out: LUCIFERASE INFECTION ASSAY - IC50): 2.69 µM
14 | CCn1c(NC(=O)Cc2csc(-n3c(C)ccc3C)n2)nc2ccccc21 | > 10 µM | IC50 (HEPG2TOX_HILL_SLOPE 6.15, HEPG2TOX_R_SQUARED 0.156, PBLUC_HILL_SLOPE 14.1, PBLUC_R_SQUARED 0.172, read-out: LUCIFERASE INFECTION ASSAY - IC50): 8.84 µM
15 | CC(C)Cc1ccc(C(=O)CC(Sc2ccccc2N)c2ccc(Cl)cc2)cc1 (configuration not stated) | 1.03 µM | IC50 [1]: 0.135 µM
16 | COC(=O)C1=C(C)NC(C)=C(C(=O)OC)C1c1cc(NC(=O)NC2CCCCC2)ccc1OC(F)F | > 10 µM | IC50 [1]: > 10 µM
17 | S=c1sc(Nc2ccc(Oc3ccccc3)cc2)nn1CN1CCN(c2ncccn2)CC1 | > 10 µM | IC50 (PBLUC_HILL_SLOPE 0.972, PBLUC_R_SQUARED 0.697, read-out: LUCIFERASE INFECTION ASSAY - IC50): 3.61 µM
18 | CCN(CC)c1ccc(NC(=O)c2cccc(F)c2)cc1 | 6.44 µM | IC50 (HEPG2TOX_HILL_SLOPE 2.87, HEPG2TOX_R_SQUARED 0.815, PBLUC_HILL_SLOPE 5.54, PBLUC_R_SQUARED 0.522, read-out: LUCIFERASE INFECTION ASSAY - IC50): 4.33 µM
19 | NC(=O)c1ccc(CN(C2CC2)S(=O)(=O)c2ccc3c(c2)CCC3)cc1 | > 10 µM | IC50 (PBLUC_HILL_SLOPE 1.27, PBLUC_R_SQUARED 0.0564, read-out: LUCIFERASE INFECTION ASSAY - IC50): > 10 µM
20 | Cc1ccccc1OCCN(C)C(=O)NCCc1cccs1 | 4.09 µM | IC50 (HEPG2TOX_HILL_SLOPE 3.22, HEPG2TOX_R_SQUARED 0.951, PBLUC_HILL_SLOPE 11.1, PBLUC_R_SQUARED 0.17, read-out: LUCIFERASE INFECTION ASSAY - IC50): 3.35 µM
21 | CC(C(=O)NCC1CCCCC1)N1CCN(c2ccc(F)cc2)CC1 (configuration not stated) | > 10 µM | IC50 (FFLUC_HILL_SLOPE 3.15, FFLUC_R_SQUARED 0.597, read-out: LUCIFERASE INFECTION ASSAY - IC50): > 10 µM

Row | Compound | IC90 | other results
22 | CCOc1cc2cc(C(=O)c3cc(C)ccc3O)cnc2cc1OC | 9.38 µM | IC50 (HEPG2TOX_HILL_SLOPE 3.65, HEPG2TOX_R_SQUARED 0.956, PBLUC_HILL_SLOPE 5.3, PBLUC_R_SQUARED 0.515, read-out: LUCIFERASE INFECTION ASSAY - IC50): 6.19 µM
23 | Cc1cc(-c2nc(=O)c3ccccc3[nH]2)c(C)n1CC(C)C | 4.1 µM | IC50 (PBLUC_HILL_SLOPE 3.39, PBLUC_R_SQUARED 0.354, read-out: LUCIFERASE INFECTION ASSAY - IC50): 2.15 µM
24 | COc1ncccc1C(=O)Nc1ccccc1Cl | > 12.6 µM | IC50 (HEPG2TOX_HILL_SLOPE 9.95, HEPG2TOX_R_SQUARED 0.955, PBLUC_HILL_SLOPE 2.98, PBLUC_R_SQUARED 0.38, read-out: LUCIFERASE INFECTION ASSAY - IC50): 12.2 µM
25 | COc1ccc(S(=O)(=O)N2CCN(CC(=O)N3CCCCCC3)CC2)cc1 | > 10 µM | IC50 [1]: > 10 µM
26 | CCNc1nc(CN2CCCCC2)nc2scc(-c3ccccc3)c12 | 5.12 µM | IC50 (PBLUC_HILL_SLOPE 4.71, PBLUC_R_SQUARED 0.781, read-out: LUCIFERASE INFECTION ASSAY - IC50): 3.21 µM
27 | Clc1ccc2c(c1)C(Nc1ccc3nnnn3n1)CCS2 (configuration not stated) | > 10 µM | IC50 (HEPG2TOX_HILL_SLOPE 2.38, HEPG2TOX_R_SQUARED 0.171, read-out: LUCIFERASE INFECTION ASSAY - IC50): > 10 µM
28 | O=C(COC(=O)c1cn(-c2ccccc2)nc1-c1ccccc1)Nc1ccc(Cl)c(S(=O)(=O)N2CCOCC2)c1 | > 10 µM | IC50 (PBLUC_HILL_SLOPE 2.11, PBLUC_R_SQUARED 0.445, read-out: LUCIFERASE INFECTION ASSAY - IC50): 5.37 µM
29 | CN1CCN(c2ccc(-c3cn4c(-c5ccccc5)cnc4cn3)cn2)CC1 | 7.71 µM | IC50 (PBLUC_HILL_SLOPE 3.35, PBLUC_R_SQUARED 0.57, read-out: LUCIFERASE INFECTION ASSAY - IC50): 4 µM
30 | CSc1nnc(-c2ccc(C(C)(C)C)cc2)[nH]1 | 10.9 µM | IC50 (FFLUC_HILL_SLOPE 15.7, FFLUC_R_SQUARED 0.752, PBLUC_HILL_SLOPE 2.05, PBLUC_R_SQUARED 0.759, read-out: LUCIFERASE INFECTION ASSAY - IC50): 3.73 µM
31 | CC(=O)N1C=Cc2ccccc2C1CC(=O)Nc1ccc(Cl)c(S(=O)(=O)N2CCCC2)c1 (configuration not stated) | > 10 µM | IC50 [1]: > 10 µM
32 | CCCCCCCc1ccc(NC(=O)Nc2ccc(F)cc2)cc1 | > 10 µM | IC50 (FFLUC_HILL_SLOPE 255, FFLUC_R_SQUARED 0.421, PBLUC_HILL_SLOPE 1.52, PBLUC_R_SQUARED 0.706, read-out: LUCIFERASE INFECTION ASSAY - IC50): 2.49 µM
33 | Cc1ccc(S(=O)(=O)N2CCN(C(=O)C3CCN(c4nc5ccccc5o4)CC3)CC2)cc1C | 2.62 µM | IC50 (HEPG2TOX_HILL_SLOPE 0.685, HEPG2TOX_R_SQUARED 0.962, PBLUC_HILL_SLOPE 3.7, PBLUC_R_SQUARED 0.71, read-out: LUCIFERASE INFECTION ASSAY - IC50): 1.45 µM
34 | CC(OC(=O)c1ccc(=O)n(Cc2ccccc2)n1)C(=O)N1CCCc2ccccc21 (configuration not stated) | > 10 µM | IC50 [1]: > 10 µM
35 | O=C(NNC(=O)c1ccccc1OCC1CCCO1)c1cc2ccccc2cc1O (configuration not stated) | 4.01 µM | IC50 (HEPG2TOX_HILL_SLOPE 0.895, HEPG2TOX_R_SQUARED 0.962, PBLUC_HILL_SLOPE 14.5, PBLUC_R_SQUARED 0.545, read-out: LUCIFERASE INFECTION ASSAY - IC50): 3.45 µM
36 | CCOC(=O)C1=C(C)NC(C)=C(C(=O)OCC)C1c1ccc(Cl)cc1Cl | > 8.29 µM | IC50 (PBLUC_HILL_SLOPE 1.65, PBLUC_R_SQUARED 0.211, read-out: LUCIFERASE INFECTION ASSAY - IC50): > 8.29 µM
37 | Cc1ccc(-n2c(C)cc(C(=O)COC(=O)c3[nH]nc4ccccc34)c2C)cc1 | > 10 µM | IC50 (HEPG2TOX_HILL_SLOPE 1.65, HEPG2TOX_R_SQUARED 0.879, read-out: LUCIFERASE INFECTION ASSAY - IC50): > 10 µM
38 | O=C(Nc1cccc(Cl)c1)Nc1ccc2nc(Cc3ccccc3)nn2c1 | 3.2 µM | IC50 [1]: 2.79 µM
39 | Cc1ccc(F)cc1C(=O)Nc1nc2ccccn2c1C(=O)NC1CCCCC1 | 1.12 µM | IC50 (HEPG2TOX_HILL_SLOPE 1.92, HEPG2TOX_R_SQUARED 0.809, PBLUC_HILL_SLOPE 11.3, PBLUC_R_SQUARED 0.608, read-out: LUCIFERASE INFECTION ASSAY - IC50): 0.921 µM
40 | Clc1ccc2c(Sc3nnc4ccccn34)ccnc2c1 | > 10 µM | IC50 [1]: > 10 µM
41 | Oc1c(Cl)cc(Cl)cc1C1Nc2cccc3cccc(c23)N1 | > 9.96 µM | IC50 [1]: > 9.96 µM
